{
  "source": "patent US20230330064A1",
  "about": "“TYROSINE, TRYPTOPHAN AND PHENYLALANINE AS mTOR AGONISTS MEDIATING PROTEASOME DYNAMICS, COMPOSITIONS, METHODS AND USES THEREOF IN THERAPY, AND PROGNOSTIC METHODS FOR DRUG-RESISTANCE” (Technion Research & Development Foundation Limited, priority 2020, published 2023)",
  "key": {"[1]": {"target": "L-type amino acid transporter 1 (LAT-1) (Homo sapiens, UniProt Q01650)", "sequence (Q01650 whole entry)": "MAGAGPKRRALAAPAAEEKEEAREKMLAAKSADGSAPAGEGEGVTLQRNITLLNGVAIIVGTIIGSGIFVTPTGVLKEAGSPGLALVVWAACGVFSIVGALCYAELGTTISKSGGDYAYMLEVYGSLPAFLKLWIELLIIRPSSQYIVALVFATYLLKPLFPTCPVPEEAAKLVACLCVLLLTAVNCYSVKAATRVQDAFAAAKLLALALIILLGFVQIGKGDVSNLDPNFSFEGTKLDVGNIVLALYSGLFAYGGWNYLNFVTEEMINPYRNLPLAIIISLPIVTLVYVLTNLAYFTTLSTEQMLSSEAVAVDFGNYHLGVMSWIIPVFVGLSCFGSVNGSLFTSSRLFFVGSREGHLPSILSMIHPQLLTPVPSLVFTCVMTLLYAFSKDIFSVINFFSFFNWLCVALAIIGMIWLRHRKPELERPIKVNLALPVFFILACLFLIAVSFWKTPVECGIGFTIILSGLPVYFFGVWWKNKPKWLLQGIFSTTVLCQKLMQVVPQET", "sequence (P08195 102-630 partner)": "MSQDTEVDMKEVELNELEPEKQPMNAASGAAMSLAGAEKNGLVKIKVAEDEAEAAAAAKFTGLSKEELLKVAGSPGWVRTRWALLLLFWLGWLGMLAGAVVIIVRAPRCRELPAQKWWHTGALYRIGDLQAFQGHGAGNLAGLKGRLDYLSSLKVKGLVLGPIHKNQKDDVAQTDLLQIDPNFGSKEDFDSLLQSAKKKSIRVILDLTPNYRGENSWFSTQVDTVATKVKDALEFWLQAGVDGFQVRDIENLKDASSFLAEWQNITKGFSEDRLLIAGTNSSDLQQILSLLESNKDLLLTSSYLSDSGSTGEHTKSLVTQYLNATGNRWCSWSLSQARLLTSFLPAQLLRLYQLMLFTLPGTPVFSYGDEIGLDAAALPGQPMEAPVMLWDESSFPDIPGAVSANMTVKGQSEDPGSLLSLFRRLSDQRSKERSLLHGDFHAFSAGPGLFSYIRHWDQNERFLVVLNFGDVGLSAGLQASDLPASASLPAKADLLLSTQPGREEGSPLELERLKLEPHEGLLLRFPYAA", "details": "cited from earlier work"}, "[2]": {"test_system": "human bladder cancer T24 cell line", "details": "cited from earlier work"}, "tumor": {"test_system": "tumor", "details": "in vivo; cited from earlier work"}, "26S proteasome": {"test_system": "26S proteasome", "assay": "Proteasome subcellular localization in cultured cells (immunofluorescence, western blot of nuclear fractions)", "format": "cell-based", "details": "for proteasome localization without exogenous starvation: non-stressed cells, complete medium; for starvation-induced proteasome translocation from the nucleus to the cytosol: substance added to amino acid starvation medium, 8 h", "experimental": "Cells were seeded on glass cover slips for 36 h. Following the indicated treatments, they were fixed with 4% PFA for 15 min, washed with (phosphate-buffered saline) PBS and incubated in PBS containing 10% goat serum for 1h at room temperature, followed by 2 h incubation with the indicated primary antibody. Following extensive wash with PBS, the fixed cells were incubated with the relevant secondary antibody for 1 h, washed and mounted. Images were acquired using Zeiss LSM 700 confocal microscope (Zeiss, Oberkochen, Germany).\nThe proteasome subunits α6, β1, and PSMD1 were visualized via indirect immunofluorescence, using primary and secondary antibodies listed under Key Resources Table. To observe the proteasome in live cells, we expressed the cDNAs of the β4, Rpn2, Rpn6, and Rpn13 proteasome subunits C-terminally fused with GFP. Photoconversion of proteasome-fused Dendra2 was carried out as previously described (McKinney et al., 2009 Nat Methods. 131-133).\nCells were incubated for 20 min in fractionation buffer [20 mM HEPES pH 7.3, 10 mM KCl, 5 mM ATP, 5 mM MgCl2, and protease inhibitor cocktail (Roche)], followed by the addition of NP-40 (to 0.1%). They were then mixed thoroughly and centrifuged at 1,000×g for 5 min. The supernatant was collected as cytosolic fraction, and the pellet (nuclei) was washed twice with PBS. To dissolve the nuclear pellet, fractionation buffer supplemented with 0.5% sodium deoxycholate was added followed by sonication.\nCells were washed twice with ice cold PBS and scraped into lysis buffer (50 mM Tris-HCl, pH 7.4, 130 mM NaCl, 0.5% NP-40) supplemented with freshly added protease inhibitor cocktail, 5 mM ATP, 10 mM iodoacetamide, and 5 mM N-ethyl maleimide. Protein concentration was measured by the BCA assay according to the manufacturer's instructions (Pierce, Rockford, IL). 30 μg of cellular protein were resolved via SDS-PAGE, transferred to a nitrocellulose membrane and immunoblotted with the appropriate antibody."}, "[3]": {"target": "proteasome subunit beta type-5 (PSMB5) (Homo sapiens, UniProt P20618+P28074)", "details": "cited from earlier work"}},
  "data": [
    {"molecule": "N[C@@H](Cc1cccc(Oc2ccc3ccccc3c2)c1)C(=O)O", "note": "[3-(2-naphthyloxy)-L-phenylalanine]", "values": [
      {"measurement": "intracellular 14C-Leucine", "setting": "[1]", "result": "reduction"},
      {"measurement": "T24 cell line proliferation", "setting": "[2]", "result": "inhibition"},
      {"measurement": "tumor growth", "setting": "tumor", "result": "inhibition of tumor growth"}
    ]},
    {"molecule": "Cn1cnc(N)c2ncnc1-2", "note": "[3-MA, 3-methyl adenine]", "values": [
      {"measurement": "proteasome localization without exogenous starvation", "setting": "26S proteasome", "result": "induced the same effect"}
    ]},
    {"molecule": "CC(C)C[C@H](NC(=O)CNC(=O)c1cc(Cl)ccc1Cl)B(O)O", "note": "[Ixazomib, N^2-(2,5-Dichlorobenzoyl)-N-[(1R)-1-(dihydroxyboryl)-3-methylbutyl]glycinamide]", "values": [
      {"measurement": "mode of PSMB5 inhibition", "setting": "[3]", "result": "selectively and reversibly inhibits"}
    ]},
    {"molecule": "CCC(=O)N1CCN(c2ccc(-n3c(=O)ccc4cnc5ccc(-c6cnc7ccccc7c6)cc5c43)cc2C(F)(F)F)CC1", "note": "[Torin1]", "values": [
      {"measurement": "proteasome localization without exogenous starvation", "setting": "26S proteasome", "result": "induces nuclear export of both 20S and 19S sub-complexes"}
    ]},
    {"molecule": "N[C@@H](Cc1c[nH]c2ccccc12)C(=O)O", "note": "[Trp, Tryptophan]", "values": [
      {"measurement": "starvation-induced proteasome translocation from the nucleus to the cytosol", "setting": "26S proteasome", "result": "significant effect"}
    ]},
    {"molecule": "N[C@@H](Cc1ccc(O)cc1)C(=O)O", "note": "[Tyr, 4-hydroxyphenylalanine]", "values": [
      {"measurement": "starvation-induced proteasome translocation from the nucleus to the cytosol", "setting": "26S proteasome", "result": "significant effect"}
    ]},
    {"molecule": "CC(C)C[C@H](NC(=O)[C@H](CCc1ccccc1)NC(=O)CN1CCOCC1)C(=O)N[C@@H](Cc1ccccc1)C(=O)N[C@@H](CC(C)C)C(=O)[C@@]1(C)CO1", "note": "[carfilzomib, (2S)-4-Methyl-N-[(2S)-1-[[(2S)-4-methyl-1-[(2R)-2-methyloxiran-2-yl]-1-oxopentan-2-yl]amino]-1-oxo-3-phenylpropan-2-yl]-2-[[(2S)-2-[(2-morpholin-4-ylacetyl)amino]-4-phenylbutanoyl]amino]pentanamide]", "values": [
      {"measurement": "mode of PSMB5 inhibition", "setting": "[3]", "result": "irreversibly"}
    ]},
    {"molecule": "C[C@@H]1C[C@@H]([C@H](O)CC2CC(=O)NC(=O)C2)C(=O)[C@@H](C)C1", "note": "[cycloheximide]", "values": [
      {"measurement": "reappearance of the proteasome in the nucleus after amino acid replenishment", "setting": "26S proteasome; 8 h starvation, then replenishment in presence of the substance", "result": "does not prevent the reappearance of the proteasome in the nucleus"}
    ]},
    {"molecule": "Ivermectin", "values": [
      {"measurement": "proteasome localization without exogenous starvation", "setting": "26S proteasome", "result": "cytosolic accumulation"}
    ]},
    {"molecule": "Tunicamycin", "values": [
      {"measurement": "proteasome localization without exogenous starvation", "setting": "26S proteasome", "result": "inducing proteasome nuclear export"}
    ]}
  ]
}
